As a reminder, the ED50 is the dose at which the effect has come halfway, by size or by number of responders. A higher ED50 goes with a need for a large dose.

Some results are limits rather than exact numbers.

For the test, the system named is Plasma testosterone concentrations. Put plainly: Testosterone in vivo test. The following applies: Rattus norvegicus, 2 h; male rats, oral; LHRH-analogue i.m. after one hour; plasma testosterone two hours after administration; 50% inhibition relative to placebo.
Description: Male rats were administered orally a test compound as a solution or as a suspension in aqueous medium. One hour following drug or placebo administration, a luteinizing hormone releasing hormone- analogue was injected intramuscularly and an anaesthetic was administered intraperitonally. Two hours after the oral administration of the test compound the rats were decapitated, and the blood was collected on heparine. Plasma testosterone concentrations were measured by standard radio-immunological procedures. A 50% inhibition relative to the placebo values was considered as the criterion of testosterone inhibitory activity. ED50-values were determined by probit analysis.
Take `Cn1cnc2cc(C(c3ccccc3)n3ccnc3)ccc21` (centres unmarked) [Compound 28]: it took a dose of 2.5 mg/kg to reach the 50% effect level (ED50). As for `Cn1c(-c2ccccc2)nc2ccc(C(c3ccccc3)n3ccnc3)cc21` (centres unmarked) [Compound 30], the 50% effect level (ED50) was put at a dose of 2.5 mg/kg. The value for `c1csc(C(c2ccc3[nH]c(-c4cscn4)nc3c2)n2ccnc2)c1` (centres unmarked) [Compound 34] was 2.5 mg/kg; that for `COc1ccc(-c2nc3cc(C(c4ccccc4)n4ccnc4)ccc3[nH]2)cc1` (centres unmarked) [Compound 49] was under 2.5 mg/kg; that for `c1cn(Cc2ccc3[nH]c(-c4cscn4)nc3c2)cn1` [Compound 51] was 2.5 mg/kg. On to `Nc1ncccc1-c1nc2cc(Cn3ccnc3)ccc2[nH]1` [Compound 53], for which the ED50 was 2.5 mg/kg. In turn, `CCC(c1ccc2[nH]c(-c3ccccc3)nc2c1)n1ccnc1` (centres unmarked) [Compound 54] returned an ED50 of 2.5 mg/kg.

`c1ccc2c(Cc3nc4cc(Cn5ccnc5)ccc4[nH]3)c[nH]c2c1` [Compound 71] displayed an ED50 of 2.5 mg/kg. In the case of `CC(c1ccc2[nH]c(C(F)F)nc2c1)n1ccnc1` (centres unmarked) [Compound 78], the ED50 was under 2.5 mg/kg.

The compound `CCC(c1ccc2[nH]c(C(F)(F)F)nc2c1)n1ccnc1` (centres unmarked) [Compound 83, 5-[1-(1 H-imidazol-1-yl)propyl]-2-(trifluoromethyl)-1 H-benzimidazole] gave an ED50 of under 2.5 mg/kg.

`CC(C)C(c1ccc2[nH]c(C(F)(F)F)nc2c1)n1ccnc1` (centres unmarked) [Compound 84, 5-[1-(1 H-imidazol-1-yl)-2-methylpropyl]-2-(trifluoromethyl)-1 H-benzimidazole ethanedioate(1:1).hemihydrate]: the ED50 is under 2.5 mg/kg. Turning to `Fc1ccccc1-c1nc2ccc(C(c3ccccc3)n3ccnc3)cc2[nH]1` (centres unmarked) [Compound 92, 2-(2-fluorophenyl)-5-[(1 H-imidazol-1-yl)phenylmethyl]-1H-benzimidazole ethanedioate(2:3)], the ED50 is under 2.5 mg/kg.

For the compound `Clc1cccc(C(c2ccc3[nH]cnc3c2)n2ccnc2)c1` (centres unmarked) [Compound 93, 5-[(3-chlorophenyl)-(1 H-imidazol-1-yl)methyl]-1 H-benzimidazole], it took a dose of 2.5 mg/kg to reach the 50% effect level (ED50). For `c1ccc(Cn2cnc3ccc(Cn4ccnc4)cc32)cc1` [Compound 102], the ED50 was under 2.5 mg/kg. For the compound `c1ccc(C(c2ccc3[nH]cnc3c2)n2ccnc2)cc1` (centres unmarked) [Compound 111, 5-[(1 H-imidazol-1-yl)phenylmethyl]-1 H-benzimidazole], the ED50 is under 10 mg/kg. Consider `c1cncc(C(c2ccc3[nH]cnc3c2)n2ccnc2)c1` (centres unmarked) [Compound 112, 5-[(1 H-imidazol-1-yl)(3-pyridinyl)methyl]-1 H-benzimidazole], for which the 50% effective dose (ED50) came to 2.5 mg/kg. As to `c1csc(C(c2ccc3[nH]cnc3c2)n2ccnc2)c1` (centres unmarked) [Compound 113, 5-[(1H-imidazol-1-yl)(2-thienyl)methyl]-1H-benzimidazole], the 50% effective dose (ED50) is under 10 mg/kg. The compound `COc1nc2cc(C(c3ccccc3)n3ccnc3)ccc2[nH]1` (centres unmarked) [Compound 115, 5-[(1 H-imidazol-1-yl)phenylmethyl]-2-methoxy-1 H-benzimidazole] gave a 50% effective dose (ED50) of 2.5 mg/kg. `CCC(c1ccc2[nH]cnc2c1)n1ccnc1.Cl.Cl` (centres unmarked) [Compound 119, 5-[1-(1 H-imidazol-1-yl)propyl]-1 H-benzimidazole dihydrochloride] displayed a 50% effective dose (ED50) of 2.5 mg/kg.

Regarding `Cc1nc2cc(C(c3cccc(Cl)c3)n3ccnc3)ccc2[nH]1` (centres unmarked) [Compound 122, 5-[(3-chlorophenyl)(1 H-imidazol-1-yl)methyl]-2-methyl-1 H-benzimidazole], the median effective dose (ED50) amounted to 2.5 mg/kg. `Cc1nc2cc(C(c3cccs3)n3ccnc3)ccc2[nH]1` (centres unmarked) [Compound 125] showed a median effective dose (ED50) of 2.5 mg/kg. Compound `Cc1nc2cc(C(c3ccc(Cl)cc3Cl)n3ccnc3)ccc2[nH]1` (centres unmarked) [Compound 127] returned a median effective dose (ED50) of 10 mg/kg. With `CCCCCc1nc2cc(Cn3ccnc3)ccc2[nH]1` [Compound 133] the figure was under 2.5 mg/kg; with `CCCCCc1nc2cc(C(c3ccccc3)n3ccnc3)ccc2[nH]1` (centres unmarked) [Compound 136], under 2.5 mg/kg. In turn, `Fc1cccc(-c2nc3cc(Cn4ccnc4)ccc3[nH]2)c1` [Compound 141] yielded a median effective dose (ED50) of 2.5 mg/kg. `Fc1ccc(-c2nc3cc(Cn4ccnc4)ccc3[nH]2)cc1` [Compound 142] had an ED50 of 2.5 mg/kg. Turning to `Cc1nc2cc(C(C(C)C)n3ccnc3)ccc2n1C` (centres unmarked) [Compound 160], the 50% effect level (ED50) was put at a dose of 2.5 mg/kg. With `Cc1ccc(-c2nc3cc(C(c4ccccc4)n4ccnc4)ccc3[nH]2)cc1` (centres unmarked) [Compound 173] the figure was under 2.5 mg/kg; with `Fc1ccc(-c2nc3cc(C(c4ccccc4)n4ccnc4)ccc3[nH]2)cc1` (centres unmarked) [Compound 174], under 2.5 mg/kg; with `Cc1nc2cc(C(C(C)C)n3ccnc3)ccc2[nH]1` (centres unmarked) [Compound 182], 2.5 mg/kg. In turn, `CC(c1ccc2[nH]c(-c3cccnc3)nc2c1)n1ccnc1` (centres unmarked) [Compound 189, 5-[1-(1H-imidazol-1-yl)ethyl]-2-(3-pyridinyl)-1H-benzimidazole] yielded an ED50 of 2.5 mg/kg. As for `c1ccc(C(c2ccc3[nH]c(-c4cccnc4)nc3c2)n2ccnc2)cc1` (centres unmarked) [Compound 190, 5-[(1 H-imidazol-1-yl)phenylmethyl]-2-(3-pyridinyl)-1H-benzimidazole], the 50% effect level (ED50) was put at a dose of 10 mg/kg.

In turn, `Cc1nc2cc(C(C)n3ccnc3)ccc2[nH]1.Cl.Cl` (centres unmarked) [Compound 206, 5-[1-(1 H-imidazol-1-yl)ethyl]-2-methyl-1 H-benzimidazole dihydrochloride] gave an ED50 of under 2.5 mg/kg. `Cn1c(O)nc2cc(Cn3ccnc3)ccc21` [Compound 222, 5-(1 H-imidazol-1-ylmethyl)-1-methyl-1 H-benzimidazol-2-ol]: the 50% effective dose (ED50) is under 2.5 mg/kg. The compound `COn1c(-c2ccccc2)nc2ccc(Cn3ccnc3)cc21` [Compound 227, 6-(1 H-imidazol-1-ylmethyl)-1-methoxy-2-phenyl-1 H-benzimidazole] came in with a 50% effective dose (ED50) of 2.5 mg/kg. `COn1c(-c2cccnc2)nc2ccc(Cn3ccnc3)cc21` [Compound 229]: the 50% effect level (ED50) was put at a dose of 2.5 mg/kg. `COn1c(C)nc2ccc(C(c3ccccc3)n3ccnc3)cc21` (centres unmarked) [Compound 231] yielded an ED50 of 2.5 mg/kg. Take `COn1c(-c2ccc(F)cc2)nc2ccc(C(C)n3ccnc3)cc21` (centres unmarked) [Compound 235]: the ED50 amounted to 2.5 mg/kg.
